Patent US5885968A, “Triantennary cluster glycosides, their preparation and use” (Rijksuniversiteit te Leiden, priority 1992, dated 1999)

Legend:
[1] = tested on: rats; assay: Serum cholesterol lowering after intravenous injection in rats; format: in vivo, rat
Procedure: This was verified as follows. Male rats (250-300 g) were anesthetized by means of ether, whereafter 500 gl PBS, having dissolved therein 0.56 mg, 0.18 mg, 0.056 mg or 0 mg TG(20 Å)-chol (formula 20) or 0.56 mg tris-glu-chol (formula 21): [drawing 19] was injected into the vena penis. At the times indicated in FIG. 3, blood samples of 300 μl were taken by means of orbital puncture. The blood samples were centrifuged (5 min; 1500 g) and the serum was used for a cholesterol assay by means of the CHOD-PAP kit of Boehringer Mannheim. 24 Hours after injection the rat was bled. The blood was centrifuged whereafter the serum was pipeted. Then the serum was subjected to gradient density ultracentrifugation and the various lipoprotein fractions were isolated: HDL (1.21<d<1.05), LDL (1.050<d<1.019), IDL (1.019<d<1.006) and VLDL (d<1.006). Finally, the total cholesterol concentrations of these lipoprotein fractions were assayed by means of the CHOD-PAP kit.

[2] = tested on: rats; assay: Biliary secretion in catheterized rats after intravenous injection; format: in vivo, rat; details: 0.56 mg i.v., FIG. 5
Procedure: Intravenous injection of TG(20 Å)C (0.56 mg, dissolved in phosphate buffered saline) in rats, provided with catheters in duodenum, bile-duct and heart vene, also enhances the biliary secretion of bile acids from the liver leaving the biliary flow and the biliary secretion of cholesterol unaltered. Apparently, the TG(20 Å)C-induced increase in the uptake of lipoprotein-derived cholesterol is efficiently coupled to bile-acid secretion in rats. This might have important implications for potential application of TG(20 Å)C as a hypocholesterolemic therapeutic. (See FIG. 5.)

[3] = tested on: rats; assay: In vivo behaviour of LDL charged with glycolipid after intravenous injection into rats; parameters: species or system rat
Source text: The so prepared compound TG(20 Å)-chol (formula 20): [drawing 22] can also be used to direct LDL to the hepatic parenchymal cell. To investigate this, isolated low-density lipoprotein was charged with TG(20 Å)-chol according to a procedure that is known per se and the in vivo behaviour of the particle was studied. […] This then leads to a stabilization of the LDL level in the bloodstream after a few minutes. Accumulation of TG(20 Å)-chol in LDL, then, changes the physiological rate of LDL. The complex is taken up by the liver via a galactose-specific route. […] Now it can be verified whether the complex is taken up by the parenchymal or by the Kupffer cell on the liver. […] This is an indication that charging with this compound leads to liver uptake via the asialoglycoprotein receptor in the parenchymal cell.

[4] = tested on: rats; assay: In vivo fate of lipoprotein (a) charged with glycolipid in rats; parameters: species or system rat
Source text: The so prepared TG(20 Å)-chol (formula 20): [drawing 24] can also be used to direct apo(a) to the hepatic parenchymal cell. High levels of lp(a) are correlated with the occurence of coronary and vascular diseases. To date, an adequate clinical therapy to alleviate the pathogenesis is not available. To investigate whether TG(20 Å)C can be used to stimulate the hepatic uptake and processing of lp(a) this, isolated lp(a) was charged with TG(20 Å)-chol according to a procedure that is known per se and the in vivo behaviour of the particle was studied. Lp(a) (50 μg) in PBS was incubated at 20° C. for 30 min with 0, 5, 15 and 50 μg TG(20 Å) (-chol). This charge led to a changed behaviour of the apo(a) after intravenous injection into rats. This is illustrated in FIG. 8. […] On account of the high […] of TG(20 Å)-chol, very rapidly an exchange of this compound occurs between lp(a) and other lipoproteins and lipid compartments. This then leads to a stabilization of the lp(a) level in the bloodstream after a few minutes.
^125 I-Lp(a) (50 μg) was mixed with 50 μg of TG(20 Å)C or TG(4 Å)C in 500 μl PBS. After 30 min at room temperature, the mixtures were injected into rats at a dose of 50 μg of apolipoprotein/kg body weight. Ten minutes after injection, parenchymal, endothelial and Kupffer cells were isolated from the liver and counted for radioactivity. Values are expressed as 10-3.% of the injected dose per mg of cellular protein and are means of 3 experiments ± s.e.m.

[5] = 125I-Lp(a) 50 μg + 50 μg glycolipid, rats, 10 min after injection, mean ± s.e.m., 3 experiments

## CC(C)CCC[C@@H](C)[C@H]1CC[C@H]2[C@@H]3CC=C4C[C@@H](OC(=O)CNC(=O)CCCCC(=O)NCC(=O)NC(COCOCCOCCOCCOCCO[C@@H]5O[C@H](CO)[C@H](O)[C@H](O)[C@H]5O)(COCOCCOCCOCCOCCO[C@@H]5O[C@H](CO)[C@H](O)[C@H](O)[C@H]5O)COCOCCOCCOCCOCCO[C@@H]5O[C@H](CO)[C@H](O)[C@H](O)[C@H]5O)CC[C@]4(C)[C@H]3CC[C@]12C [TG(20 Å)-chol, N,N-[tris-O-(3,6,9-trioxaundecanyl-β-D-galactopyranosyl)methoxymethyl]methyl-N^α -(1-(6-(5-cholesten-3β-yloxy)glycyl)adipyl)glycinamide]
[1]; 0.56 mg, 24 hours
  Cholesterol level 24 hours after single administration: has not returned to the control value
[1]; 24 h after injection
  LDL level: likewise lowered
[1]; 24 h after injection (IDL, VLDL)
  Concentrations of the other lipoproteins: not significantly affected
[1]; 24 h after injection, FIG. 4
  Serum HDL level: decreases dose-dependently and significantly
[1]; injection into vena penis, 0.056-0.56 mg, FIG. 3
  Total serum cholesterol level: decreases
[1]; serum cholesterol lowering, comparison with ref 15
  Increase in potency compared with tris-gal-chol: ≥ 25 factor
[2]
  Biliary flow: unaltered
  Biliary secretion of bile acids: enhances
  Biliary secretion of cholesterol: unaltered
[3]; 50 mg/kg asialofetuin 1 min before injection
  Effect of asialofetuin preinjection on uptake of charged LDL: significant inhibition of the uptake by the liver parenchymal cell
[3]; LDL 50 μg charged with 5, 15, 50 μg, i.v. rats, FIG. 6
  Clearance from bloodstream and liver uptake of charged 125I-LDL: cleared and incorporated into the liver much faster
[3]; rats, FIG. 7
  Liver cell type location of charged LDL taken up: largely located in the parenchymal cell
[4]; 150 mg N-acetyl-galactosamine, rat, data not shown
  Effect of N-acetyl-galactosamine preinjection on induced hepatic uptake of 125I-lp(a): can be inhibited
[4]; [5]
  Contribution to hepatic uptake of Lp(a), EC (endothelial cells): 8.3 ± 2%
  Contribution to hepatic uptake of Lp(a), KC (Kupffer cells): 37.3 ± 9%
[4]; Lp(a) 50 μg charged with 5, 15, 50 μg, i.v. rats, FIG. 8
  Clearance from bloodstream and liver uptake of charged apo(a)/lp(a) particles: cleared and incorporated into the liver much faster
